Test results taken from US12509457B2, “Bicyclic nitrogen containing heterocycles as inhibitors of salt-induced kinase SIK2” (priority 2019, dated 2025).
Like-named read-outs stand apart in the source and are kept apart here.

Assays:
Type in all cases: biochemical
SIK3 = SIK3 (Homo sapiens, UniProt Q9Y2K2); experiment: SIK3 kinase assay, IMAP fluorescence polarization; conditions: 50 or 100 μM ATP; average; read-out: SIK3-AVERAGE Ki
Src = Src (Homo sapiens, UniProt P12931); experiment: Src kinase assay, IMAP fluorescence polarization; conditions: 50 or 100 μM ATP; average; read-out: Src-AVERAGE Ki
SIK2 = SIK2 (Homo sapiens, UniProt Q9H0K1); experiment: SIK2 kinase assay, IMAP fluorescence polarization; conditions: 50 or 100 μM ATP; average; read-out: SIK2-AVERAGE Ki
EPHA2 = EPHA2 (Homo sapiens, UniProt P29317); experiment: EPHA2 kinase assay, IMAP fluorescence polarization
Abl = Abl (Homo sapiens, UniProt P00519); experiment: Abl kinase assay, IMAP fluorescence polarization; conditions: 50 or 100 μM ATP; average; read-out: Abl-AVERAGE Ki
SIK1 = SIK1 (Homo sapiens, UniProt P57059); experiment: SIK1 kinase assay, IMAP fluorescence polarization; conditions: 50 or 100 μM ATP; average; read-out: SIK1-AVERAGE Ki

Sequence of SIK3 (Q9Y2K2 whole entry): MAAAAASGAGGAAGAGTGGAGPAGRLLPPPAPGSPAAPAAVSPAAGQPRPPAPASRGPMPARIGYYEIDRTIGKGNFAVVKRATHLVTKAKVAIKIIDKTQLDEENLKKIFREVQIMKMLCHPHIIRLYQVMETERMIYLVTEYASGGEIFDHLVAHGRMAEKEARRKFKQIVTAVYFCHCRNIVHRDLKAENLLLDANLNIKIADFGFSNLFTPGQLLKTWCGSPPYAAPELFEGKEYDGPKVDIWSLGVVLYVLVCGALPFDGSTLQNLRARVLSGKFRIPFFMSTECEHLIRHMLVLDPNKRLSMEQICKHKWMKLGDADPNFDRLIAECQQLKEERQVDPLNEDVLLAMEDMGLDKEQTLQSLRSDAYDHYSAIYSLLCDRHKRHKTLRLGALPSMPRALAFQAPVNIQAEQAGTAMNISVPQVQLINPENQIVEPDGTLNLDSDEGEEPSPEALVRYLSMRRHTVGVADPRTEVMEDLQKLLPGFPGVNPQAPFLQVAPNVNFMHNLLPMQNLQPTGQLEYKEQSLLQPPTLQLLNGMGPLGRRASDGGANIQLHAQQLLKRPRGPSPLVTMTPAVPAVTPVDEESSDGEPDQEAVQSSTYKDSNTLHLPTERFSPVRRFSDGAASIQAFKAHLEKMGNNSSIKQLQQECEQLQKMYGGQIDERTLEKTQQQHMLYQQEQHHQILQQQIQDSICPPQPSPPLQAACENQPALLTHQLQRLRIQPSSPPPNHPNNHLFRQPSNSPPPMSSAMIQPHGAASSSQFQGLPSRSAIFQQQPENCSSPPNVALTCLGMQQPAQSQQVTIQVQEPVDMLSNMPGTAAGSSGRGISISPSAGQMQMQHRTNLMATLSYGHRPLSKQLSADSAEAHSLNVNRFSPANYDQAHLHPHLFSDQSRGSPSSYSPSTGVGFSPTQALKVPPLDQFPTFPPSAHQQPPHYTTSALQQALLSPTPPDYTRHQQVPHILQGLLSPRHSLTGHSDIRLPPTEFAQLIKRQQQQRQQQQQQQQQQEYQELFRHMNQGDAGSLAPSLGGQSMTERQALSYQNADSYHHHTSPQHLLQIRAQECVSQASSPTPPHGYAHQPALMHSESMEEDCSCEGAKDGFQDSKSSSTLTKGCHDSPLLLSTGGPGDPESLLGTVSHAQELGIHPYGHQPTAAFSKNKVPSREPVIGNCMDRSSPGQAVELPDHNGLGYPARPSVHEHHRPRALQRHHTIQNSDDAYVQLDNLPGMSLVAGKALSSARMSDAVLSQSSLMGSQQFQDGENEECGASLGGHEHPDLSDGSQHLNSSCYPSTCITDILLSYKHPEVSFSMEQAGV
Sequence of Src (P12931 whole entry): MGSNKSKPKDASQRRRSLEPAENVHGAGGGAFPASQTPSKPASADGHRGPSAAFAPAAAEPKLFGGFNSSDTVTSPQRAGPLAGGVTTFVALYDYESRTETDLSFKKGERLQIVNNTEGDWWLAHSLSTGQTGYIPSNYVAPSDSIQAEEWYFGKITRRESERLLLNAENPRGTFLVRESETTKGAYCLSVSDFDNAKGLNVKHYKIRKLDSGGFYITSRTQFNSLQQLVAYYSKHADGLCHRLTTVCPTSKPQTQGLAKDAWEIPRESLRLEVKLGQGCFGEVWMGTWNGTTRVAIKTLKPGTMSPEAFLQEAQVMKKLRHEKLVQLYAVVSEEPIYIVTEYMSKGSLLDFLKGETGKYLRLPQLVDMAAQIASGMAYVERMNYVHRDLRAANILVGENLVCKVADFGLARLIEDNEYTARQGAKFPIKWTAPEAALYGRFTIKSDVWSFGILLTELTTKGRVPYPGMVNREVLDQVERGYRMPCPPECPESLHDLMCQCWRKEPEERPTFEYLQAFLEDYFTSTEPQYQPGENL
Sequence of Abl (P00519 whole entry): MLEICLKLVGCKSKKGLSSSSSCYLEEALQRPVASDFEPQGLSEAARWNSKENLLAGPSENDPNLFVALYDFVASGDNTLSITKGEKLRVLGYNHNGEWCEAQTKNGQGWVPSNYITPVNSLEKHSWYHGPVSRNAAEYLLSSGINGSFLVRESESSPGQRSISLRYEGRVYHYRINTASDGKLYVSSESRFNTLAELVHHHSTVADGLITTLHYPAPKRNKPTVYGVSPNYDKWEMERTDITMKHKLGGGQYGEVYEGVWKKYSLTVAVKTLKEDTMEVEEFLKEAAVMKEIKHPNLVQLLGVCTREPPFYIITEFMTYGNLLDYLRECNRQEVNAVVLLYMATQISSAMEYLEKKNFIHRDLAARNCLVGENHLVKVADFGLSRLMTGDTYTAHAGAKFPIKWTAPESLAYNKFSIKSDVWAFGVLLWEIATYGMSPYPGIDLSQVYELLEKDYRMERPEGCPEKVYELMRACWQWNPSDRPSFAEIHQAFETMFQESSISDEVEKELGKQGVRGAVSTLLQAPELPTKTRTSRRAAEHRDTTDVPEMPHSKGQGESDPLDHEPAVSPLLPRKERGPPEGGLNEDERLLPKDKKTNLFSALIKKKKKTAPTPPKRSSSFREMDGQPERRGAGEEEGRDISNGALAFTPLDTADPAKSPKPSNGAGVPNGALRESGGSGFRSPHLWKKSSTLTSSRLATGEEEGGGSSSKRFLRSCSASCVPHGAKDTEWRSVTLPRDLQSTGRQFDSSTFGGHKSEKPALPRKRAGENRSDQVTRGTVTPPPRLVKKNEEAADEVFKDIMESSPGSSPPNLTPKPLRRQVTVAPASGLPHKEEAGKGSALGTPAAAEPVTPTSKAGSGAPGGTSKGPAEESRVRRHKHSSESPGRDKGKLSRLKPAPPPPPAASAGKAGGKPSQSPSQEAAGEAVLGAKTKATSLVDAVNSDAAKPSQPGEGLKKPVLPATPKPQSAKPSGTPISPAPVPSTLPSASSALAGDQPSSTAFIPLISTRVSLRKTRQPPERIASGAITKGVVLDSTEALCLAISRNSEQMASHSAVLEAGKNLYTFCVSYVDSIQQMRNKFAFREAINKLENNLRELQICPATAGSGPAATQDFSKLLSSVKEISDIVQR
Sequence of SIK2 (Q9H0K1 whole entry): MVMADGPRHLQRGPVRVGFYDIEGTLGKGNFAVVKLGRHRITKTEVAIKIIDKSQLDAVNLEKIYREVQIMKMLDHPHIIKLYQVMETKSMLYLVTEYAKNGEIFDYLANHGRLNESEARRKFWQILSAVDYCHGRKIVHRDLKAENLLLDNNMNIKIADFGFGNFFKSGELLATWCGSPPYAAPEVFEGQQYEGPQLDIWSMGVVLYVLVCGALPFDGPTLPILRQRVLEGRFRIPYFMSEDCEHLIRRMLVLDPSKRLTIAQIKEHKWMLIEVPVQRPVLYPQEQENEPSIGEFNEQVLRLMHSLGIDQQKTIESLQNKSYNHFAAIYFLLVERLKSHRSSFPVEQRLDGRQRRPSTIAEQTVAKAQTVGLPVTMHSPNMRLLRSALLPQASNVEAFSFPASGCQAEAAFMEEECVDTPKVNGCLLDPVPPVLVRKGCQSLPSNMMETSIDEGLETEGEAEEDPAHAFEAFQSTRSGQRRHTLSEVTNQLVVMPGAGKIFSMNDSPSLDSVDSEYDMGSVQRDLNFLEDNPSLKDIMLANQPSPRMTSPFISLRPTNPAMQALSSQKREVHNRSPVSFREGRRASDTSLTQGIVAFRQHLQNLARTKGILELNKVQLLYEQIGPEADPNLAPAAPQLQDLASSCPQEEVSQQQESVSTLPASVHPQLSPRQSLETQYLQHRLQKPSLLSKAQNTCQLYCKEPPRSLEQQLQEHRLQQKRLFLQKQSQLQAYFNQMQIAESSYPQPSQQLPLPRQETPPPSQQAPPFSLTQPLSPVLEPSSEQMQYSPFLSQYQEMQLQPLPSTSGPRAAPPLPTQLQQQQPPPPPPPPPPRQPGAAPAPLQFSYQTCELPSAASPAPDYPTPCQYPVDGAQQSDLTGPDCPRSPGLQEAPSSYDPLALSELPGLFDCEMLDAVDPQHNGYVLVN
Sequence of EPHA2 (P29317 24-976): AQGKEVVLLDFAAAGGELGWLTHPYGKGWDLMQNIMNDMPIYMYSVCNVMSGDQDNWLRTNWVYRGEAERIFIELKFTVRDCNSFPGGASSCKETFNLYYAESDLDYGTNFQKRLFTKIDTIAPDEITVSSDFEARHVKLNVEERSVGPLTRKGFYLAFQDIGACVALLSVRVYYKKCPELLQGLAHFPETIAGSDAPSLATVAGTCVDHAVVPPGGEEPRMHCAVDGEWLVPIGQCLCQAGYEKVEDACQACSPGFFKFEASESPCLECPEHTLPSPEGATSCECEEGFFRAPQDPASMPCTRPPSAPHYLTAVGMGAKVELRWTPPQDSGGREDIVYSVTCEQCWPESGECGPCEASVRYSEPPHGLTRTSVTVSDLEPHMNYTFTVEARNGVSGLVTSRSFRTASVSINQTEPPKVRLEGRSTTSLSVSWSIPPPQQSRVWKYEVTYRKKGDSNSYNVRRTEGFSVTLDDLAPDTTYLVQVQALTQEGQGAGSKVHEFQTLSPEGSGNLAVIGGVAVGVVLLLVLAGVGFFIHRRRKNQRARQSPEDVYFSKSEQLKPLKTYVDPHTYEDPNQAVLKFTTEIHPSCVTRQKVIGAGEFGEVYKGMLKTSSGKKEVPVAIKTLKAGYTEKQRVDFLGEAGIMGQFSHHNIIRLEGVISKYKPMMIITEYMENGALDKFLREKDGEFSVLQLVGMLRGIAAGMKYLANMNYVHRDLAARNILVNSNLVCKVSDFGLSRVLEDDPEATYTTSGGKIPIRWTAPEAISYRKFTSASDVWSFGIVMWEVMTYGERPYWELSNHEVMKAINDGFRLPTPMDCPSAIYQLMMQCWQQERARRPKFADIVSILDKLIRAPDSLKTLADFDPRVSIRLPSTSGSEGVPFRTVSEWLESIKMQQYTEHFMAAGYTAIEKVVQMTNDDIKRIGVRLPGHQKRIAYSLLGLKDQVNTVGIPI

SMILES	Ki (SIK3) [nM]	Ki (Src) [nM]	Ki (SIK2) [nM]	Ki (EPHA2; 50 or 100 μM ATP, average) [nM]	Ki (Abl) [nM]	Ki (SIK1) [nM]	Ki (EPHA2) [nM]
Cc1cccc(F)c1N1Cc2cnc(N)nc2N(C2CNC2)C1=O [Example 13, 7-Amino-1-(azetidin-3-yl)-3-(2-fluoro-6-methyl-phenyl)-4H-pyrimido[4,5-d]pyrimidin-2-one]	10.9	400	1.77	371	36.4	9.71	–
Cc1cccc(Cl)c1N1Cc2cnc(N)nc2N(C2CNC2)C1=O [Example 14, 7-amino-1-(azetidin-3-yl)-3-(2-chloro-6-methyl-phenyl)-4H-pyrimido[4,5-d]pyrimidin-2-one]	9.47	96.1	1.67	180	42.5	5.8	–
Cc1cccc(F)c1N1Cc2cnc(N)nc2N(C2CN(C)C2)C1=O [Example 21, 7-amino-3-(2-fluoro-6-methyl-phenyl)-1-(1-methylazetidin-3-yl)-4H-pyrimido[4,5-d]pyrimidin-2-one]	47.9	2560	13.7	388	> 10000	47.4	–
Cc1cccc(Cl)c1N1Cc2cnc(N)nc2N(C2CN(C)C2)C1=O [Example 23, 7-amino-3-(2-chloro-6-methyl-phenyl)-1-(1-methylazetidin-3-yl)-4H-pyrimido[4,5-d]pyrimidin-2-one]	54.7	550	14.2	162	> 10000	28.6	–
Cc1cccc(F)c1N1Cc2cnc(N)nc2N([C@H]2CCN(C)C2)C1=O [Example 30, 7-amino-3-(2-fluoro-6-methyl-phenyl)-1-[(3S)-1-methylpyrrolidin-3-yl]-4H-pyrimido[4,5-d]pyrimidin-2-one]	64.5	1880	3.8	–	444	12	78.5
Cc1cccc(F)c1N1Cc2cnc(N)nc2N([C@@H]2CCN(C)C2)C1=O [Example 31, 7-amino-3-(2-fluoro-6-methyl-phenyl)-1-[(3R)-1-methylpyrrolidin-3-yl]-4H-pyrimido[4,5-d]pyrimidin-2-one]	62.6	> 10000	4.79	–	522	8.28	228
Cc1cccc(F)c1N1Cc2cnc(N)nc2N([C@H]2CCCCN(C)C2)C1=O [Example 36, 7-amino-3-(2-fluoro-6-methyl-phenyl)-1-[(3S)-1-methylazepan-3-yl]-4H-pyrimido[4,5-d]pyrimidin-2-one]	8.61	138	0.68	124	62.1	1.85	–
Cc1cccc(F)c1N1Cc2cnc(N)nc2N([C@H]2CCCN(C)C2)C1=O [Example 37, 7-amino-3-(2-fluoro-6-methyl-phenyl)-1-[(3S)-1-methyl-3-piperidyl]-4H-pyrimido[4,5-d]pyrimidin-2-one]	6.65	80.5	0.703	25.8	53.2	2.5	–
Cc1cccc(F)c1N1Cc2cnc(N)nc2N([C@@H]2CCCCN(C)C2)C1=O [Example 38, 7-amino-3-(2-fluoro-6-methyl-phenyl)-1-[(3R)-1-methylazepan-3-yl]-4H-pyrimido[4,5-d]pyrimidin-2-one]	46.7	678	2.7	188	144	9.57	–
CNc1cc2c(cn1)CN(c1c(C)cccc1F)C(=O)N2[C@H]1CC[C@@H](N(C)C)CC1 [Example 40, cis-1-[4-(dimethylamino)cyclohexyl]-3-(2-fluoro-6-methyl-phenyl)-7-(methylamino)-4H-pyrido[4,3-d]pyrimidin-2-one]	18.4	626	1.25	106	62.7	3.93	–
Cc1cccc(F)c1N1Cc2cnc(N(C)C)cc2N([C@H]2CC[C@@H](N(C)C)CC2)C1=O [Example 41, cis-7-(dimethylamino)-1-[4-(dimethylamino)cyclohexyl]-3-(2-fluoro-6-methyl-phenyl)-4H-pyrido[4,3-d]pyrimidin-2-one]	565	> 10000	102	> 10000	> 10000	478	–
Cc1cccc(F)c1N1Cc2cnc(N)nc2N([C@@H]2CCCN(C)C2)C1=O [Example 42, 7-Amino-3-(2-fluoro-6-methyl-phenyl)-1-[(3R)-1-methyl-3-piperidyl]-4H-pyrimido[4,5-d]pyrimidin-2-one]	14	702	1.52	66.8	241	3.24	–
Cc1cccc(F)c1N1Cc2cnc(N)cc2N([C@@H]2CCNC2)C1=O [Example 47, 7-Amino-3-(2-fluoro-6-methyl-phenyl)-1-[(3R)-pyrrolidin-3-yl]-4H-pyrido[4,3-d]pyrimidin-2-one]	16.6	> 1000	1.32	247	> 1000	2.6	–
Cc1cccc(F)c1N1Cc2cnccc2N([C@H]2CCCCNC2)C1=O [Example 52, 3-(2-fluoro-6-methyl-phenyl)-1-[(3S)-azepan-3-yl]-4H-pyrido[4,3-d]pyrimidin-2-one]	288	> 10000	13.7	1520	> 10000	42	–

These reach a lower Ki (SIK3). Values come first.

Ki (SIK3) [nM]	Ki (Src) [nM]	Ki (SIK2) [nM]	Ki (EPHA2; 50 or 100 μM ATP, average) [nM]	Ki (Abl) [nM]	Ki (SIK1) [nM]	Ki (EPHA2) [nM]	SMILES
0.721	39.3	0.149	27.9	3.12	0.822	–	Cc1cccc(F)c1N1Cc2cnc(N)nc2N(CC2CCNCC2)C1=O [Example 12, 7-amino-3-(2-fluoro-6-methyl-phenyl)-1-(4-piperidylmethyl)-4H-pyrimido[4,5-d]pyrimidin-2-one]
1.48	138	0.374	–	33.6	0.733	29.6	Cc1cccc(F)c1N1Cc2cnc(N)nc2N([C@@H]2CCCN(C)CC2)C1=O [Example 34, 7-amino-3-(2-fluoro-6-methyl-phenyl)-1[(4R)-1-methylazepan-4-yl]-4H-pyrimido[4,5-d]pyrimidin-2-one]
2.12	287	0.383	–	105	1.17	38.7	Cc1cccc(F)c1N1Cc2cnc(N)nc2N([C@H]2CCCN(C)CC2)C1=O [Example 35, 7-amino-3-(2-fluoro-6-methyl-phenyl)-1-[(4S)-1-methylazepan-4-yl]-4H-pyrimido[4,5-d]pyrimidin-2-one]
3.87	86	0.444	35.8	32.5	1.66	–	Cc1cccc(F)c1N1Cc2cnc(N)nc2N([C@H]2CC[C@@H](N(C)C)CC2)C1=O [Example 39, cis-7-amino-1-[4-(dimethylamino)cyclohexyl]-3-(2-fluoro-6-methyl-phenyl)-4H-pyrimido[4,5-d]pyrimidin-2-one]
0.992	55.5	0.244	34.2	15.7	0.749	–	Cc1cccc(F)c1N1Cc2cnc(N)nc2N([C@H]2CC[C@H](N(C)C)CC2)C1=O [Example 45, trans-7-Amino-1-[4-(dimethylamino)cyclohexyl]-3-(2-fluoro-6-methyl-phenyl)-4H-pyrimido[4,5-d]pyrimidin-2-one]
1.19	163	0.232	84.4	43	0.384	–	Cc1cccc(F)c1N1Cc2cnc(N)cc2N([C@H]2CC[C@@H](N(C)C)CC2)C1=O [Example 46, cis-7-Amino-1-[4-(dimethylamino)cyclohexyl]-3-(2-fluoro-6-methyl-phenyl)-4H-pyrido[4,3-d]pyrimidin-2-one]
4	132	0.348	–	> 1000	1.26	68.5	Cc1cccc(F)c1N1Cc2cnc(N)cc2N([C@@H]2CCCNC2)C1=O [Example 48, 7-amino-3-(2-fluoro-6-methyl-phenyl)-1-[(3R)-3-piperidyl]-4H-pyrido[4,3-d]pyrimidin-2-one]
3.21	> 1000	0.473	–	> 1000	0.878	> 1000	Cc1cccc(F)c1N1Cc2cnc(N)cc2N([C@H]2CCCNC2)C1=O [Example 49, 7-amino-3-(2-fluoro-6-methyl-phenyl)-1-[(3S)-3-piperidyl]-4H-pyrido[4,3-d]pyrimidin-2-one]
1.36	24.2	0.152	13.6	6.12	0.193	–	Cc1cccc(F)c1N1Cc2cnc(N)cc2N([C@@H]2CCCCNC2)C1=O [Example 50, 7-amino-3-(2-fluoro-6-methyl-phenyl)-1-[(3R)-azepan-3-yl]-4H-pyrido[4,3-d]pyrimidin-2-one]
0.82	91.3	0.181	31	10.5	0.409	–	Cc1cccc(F)c1N1Cc2cnc(N)cc2N([C@@H]2CCCNCC2)C1=O [Example 51, 7-amino-3-(2-fluoro-6-methyl-phenyl)-1-[(4R)-azepan-4-yl]-4H-pyrido[4,3-d]pyrimidin-2-one]
